Data taken from US20110060028A1, “COMBINATION THERAPY” (UNIVERSITY OF YORK, priority 2007, published 2011).
d = 2'-deoxy (DNA)

Experiments:
Type in all cases: cell-based, human
exogenous SIRT1 protein = assay: Exogenous SIRT1 expression after RNAi and cycloheximide time course, immunoblotting
Text: FIG. 13 JNK-dependent phosphorylation at S27 stabilises exogenous SIRT1 protein. a. Schematic of experimental protocol for RNA′ followed by transfection with exogenous SIRT1 expression vector (see text). b. Exogenous expression of SIRT1 in intact HCT116 cells (lane 2), JNK2-depleted cells (lane 3) and JNK1-depleted cells (lane 4) detected by immunoblotting. Lane 1 =intact, non-transfected cells. Note that in both intact cells and JNK1-depleted cells the exogenous SIRT1 is phosphorylated on S27 and S47, whereas in JNK2-depleted cells S27P levels reflect endogenous SIRT1 (lanes 1 and 3, asterix), c, d. Time course analyses of SIRT1 protein levels and SIRT1 S27P following addition of cycloheximide in intact (panel c) and JNK2-depleted (panel d) HCT116 cells as indicated. e. SIRT1 protein levels at indicated times post treatment with cycloheximide (CHX) in intact cells (solid circles, solid line) and in JNK-depleted cells (open circles, dashed line).
To further explore the relationship between SIRT1 and JNK2 we expressed exogenous . SIRT1 in HCT116 p53+/+ cells in which JNK2 had been depleted by RNAI (Methods and FIG. 13a). When expressed in intact cells exogenous SIRT1 protein was phosphorylated at both S27 and S47 (FIG. 13b, lane 2). […] In addition total exogenous SIRT1 protein levels were reduced in JNK2-depleted cells (FIG. 13b, lane 3 cp. lane 2, SIRT1), consistent with reduced SIRT1 protein stability in the absence of S27 phosphorylation. […] S47 kinase/phosphatase activity. […] Thus JNK2, but not JNK1, is required for S27 phosphorylation and associated accumulation of SIRT1 protein.
Reduced accumulation of SIRT1 protein under these conditions is consistent with the premise that JNK2-dependent phosphorylation of SIRT1 at S27P stabilises the SIRT1 protein. This was confirmed by time course studies in which exogenous SIRT1 protein levels were monitored following inhibition of protein synthesis by cycloheximide. […] In intact cells exogenous SIRT1 protein was phosphorylated at S27 (FIG. 13c) and was also stable over 9 hr (FIGS. 13c and 13e). However, in JNK2-depleted cells exogenous SIRT1 protein lacked S27P (FIG. 13d) and protein levels declined with a half life of approximately 2 hrs (FIGS. 13d and 13e). We conclude that JNK2 is required, directly or indirectly, for phosphorylation of SIRT1 at S27 and that this is linked with stabilisation of SIRT1 protein in HCT116 cancer cells.

SIRT1 = assay: Immunoblotting of total SIRT1, SIRT1 S27P and SIRT1 S47P
Experimental: (§1) Epithelial cancer cell lines RKO, LoVo, DLD-1, HT29, U2OS, SAOS-2, MCF7, HTB-126, HT-1080 and SiHa were obtained from ATCC. Isogenic colorectal carcinoma cell lines HCT116 p53+/+ and HCT116 p53−/− were a kind gift of Bert Vogelstein. Non-cancer cells were normal diploid fibroblasts (NDF) and ARPE-19 immortalised retinal epithelial cells (ATCC), and normal human embryonic keratinocytes (NHEK, Invitrogen). Cells were cultured according to the supplier's protocols. siRNA sequences, transfection protocols and target validations were as described (Ref. 27 and Methods). For drug treatments, cells were treated 48 hours post-plating with final concentration of 5-FU (375 OM) and uridine (425 OM) as indicated and harvested 24 h later. For combined transfection/drug treatment, drugs were applied 24 h post-transfection and cells harvested 24 h later. For time course analyses cells were harvested at indicated time points post-treatment.
(§2) Cells were prepared as described (Methods). For immunoblotting equivalent numbers of cells, or equivalent amounts of protein, were loaded in each lane. Antibodies were: Anti-SIRT1 (H-300, Santa Cruz), anti-phosphoserine27-SIRT1 (#2327, Cell Signaling), anti-phosphoserine47-SIRT1 (#2314, Cell Signaling), anti-actin (MAB1501, Chemicon), anti-p53 (00-1, Santa Cruz), anti-acetylated-p53-lysine382 (#2525, Cell Signaling), anti-JNK1 (F-3, Santa Cruz), anti-JNK2 (#4672, Cell Signaling). Visualisation of bound antibodies was by ECL, with quantitation by densitometry of signals within the linear range.
(§3) Cells for transfection and/or drug treatment were plated at a density of 6×10^4 (ARPE-19) or 1.4×10^5 (HCT116) per well in 6-well plates. For the experiment in FIG. 3a, ARPE-19 cells were plated at a density of 4×10^4 per well. Transfections were performed 24 hours post-plating in Opti-MEM (Gibco) using Oligofectamine (Invitrogen) according to the manufacturer's instructions. Chemically synthesized, HPLC-purified siRNAs were obtained from Qiagen or Dharmacon. SIRT1 siRNA sequence has been described^27. JNK1 siRNA sequences were: Sense 5′-CUCCACCACCAAAGAUCCC(dTdT)-3′, antisense 5′-GGGAUCUUUGGUGGUGGAG(dTdT)-3′. JNK2 siRNA sequences were: Sense 5′-GAGCUGGUGAAAGGUUGUG(dTdT)-3′, antisense 5′-CACAACCUUU CACCAGCUC(dTdT)-3′. Specificities of SIRT1 siRNA, JNK1 sIRNA and JNK2 siRNA have been validated previously¢ (Ahmed and Milner, in submission). Cells were harvested for analysis 48 h post-transfection, except where indicated otherwise. For drug treatment, drugs were applied by complete media replacement 48 h post-plating at final concentration 375 μM (5-FU) or 425 μM (uridine). Cells were harvested for analysis 24h following application of drugs, or at the indicated timepoints for time-course analysis. For combined transfection/drug experiments, drugs were applied approximately 20 hours post-transfection. Cells from combined transfection/drug experiments were harvested for analysis after 24 hours of drug exposure (˜48 hours post-transfection).
For preparation of total protein lysates, cell counts or protein assay was performed, with the method chosen consistent within each experiment. Cells were lysed in lysis buffer IPAMN (10 mM TRIS base pH 8.0, 140 mM NaCl, 2 mM CaCl2, 0.5% NP-40, 5 U ml^−1 micrococcal nuclease) for 3 minutes at room temperature followed by addition of 0.25× volumes of 6×SDS-PAGE sample buffer and brief heating to 90° C. Samples for protein assay were withdrawn before addition of 6×SDS-PAGE sample buffer, and assayed using BCA Protein Assay Kit (Pierce) according to the manufacturers instructions. Equivalent numbers of cells, or equivalent amounts of protein, were electrophoresed on 10% or 15% SDS-PAGE, electrobiotted to Protran membrane (Schleicher&Schuell) using a wet-blot transfer system, blocked for 1 hour at room temperature and probed with primary antibodies overnight at 4° C. […]

laminA/C and GAPDH mRNAs = assay: Quantitative RT-PCR of laminA/C and GAPDH mRNAs; conditions: 5-FU for 24 h
Experimental: Epithelial cancer cell lines RKO, LoVo, DLD-1, HT29, U2OS, SAOS-2, MCF7, HTB-126, HT-1080 and SiHa were obtained from ATCC. Isogenic colorectal carcinoma cell lines HCT116 p53+/+ and HCT116 p53−/− were a kind gift of Bert Vogelstein. Non-cancer cells were normal diploid fibroblasts (NDF) and ARPE-19 immortalised retinal epithelial cells (ATCC), and normal human embryonic keratinocytes (NHEK, Invitrogen). Cells were cultured according to the supplier's protocols. siRNA sequences, transfection protocols and target validations were as described (Ref. 27 and Methods). […]
Cellular mRNAs were extracted for quantitative RT-PCR as previously described^27. Primers and thermal cycling conditions were as described^27 (Methods); quantifications were performed in triplicate. […]
Relative mRNA levels were quantitated by realtime RT-PCR. […] SIRT1 primers 5′-[…]-3′ and 5′-[…]-3′ were used in the thermal cycle: 50° C. for 30 minutes, 94° C. for 15 minutes, followed by 35 cycles of 94° C. for 30 seconds, 55° C. for 30 seconds, 72° C. for 30 seconds, then 75° C. for 15 seconds before the plate was read. JNK1 primers 5′-[…]-3′ and 5′-[…]-3′ were used in the thermal cycle: 50° C. for 30 minutes, 94° C. for 15 minutes, followed by 35 cycles of 94° C. for 30 seconds, 57° C. for 30 seconds, 72° C. for 30 seconds, then 75° C. for 15 seconds before the plate was read. […]

p53 = assay: Immunoblotting of p53 and p53 K382Ac
Experimental: as §1, §2
as §3, with “For combined transfection/drug experiments, drugs were applied approximately 20 hours post-transfection. Cells from combined transfection/drug experiments were harvested for analysis after 24 hours of drug exposure (˜48 hours post-transfection).” left out

SIRT1 mRNA = assay: Quantitative RT-PCR of SIRT1 mRNA; conditions: for SIRT1 mRNA estimated t1/2: following administration of 5-FU
Experimental: as §1
Cellular mRNAs were extracted for quantitative RT-PCR as previously described^27. Primers and thermal cycling conditions were as described^27 (Methods); quantifications were performed in triplicate.
as §3
Relative mRNA levels were quantitated by realtime RT-PCR. […] SIRT1 primers 5′-[…]-3′ and 5′-[…]-3′ were used in the thermal cycle: 50° C. for 30 minutes, 94° C. for 15 minutes, followed by 35 cycles of 94° C. for 30 seconds, 55° C. for 30 seconds, 72° C. for 30 seconds, then 75° C. for 15 seconds before the plate was read. JNK1 primers 5′-[…]-3′ and 5′-[…]-3′ were used in the thermal cycle: 50° C. for 30 minutes, 94° C. for 15 minutes, followed by 35 cycles of 94° C. for 30 seconds, 57° C. for 30 seconds, 72° C. for 30 seconds, then 75° C. for 15 seconds before the plate was read. JNK2 primers 5′-[…]-3′ and 5′-[…]-3′ were used in the thermal cycle: 50° C. for 30 minutes, 94° C. for 15 minutes, followed by 35 cycles of 94° C. for 30 seconds, 55° C. for 30 seconds, 72° C. for 30 seconds, then 75° C. for 15 seconds before the plate was read. All RT-PCR quantifications were performed in triplicate.

HCT116 p53+/+ cells = assay: Apoptosis (annexin-V staining, phase contrast); conditions: 24 h drug exposure
Experimental: (§4) Phase contrast digital images were captured using an Axiovert 200M microscope (Zeiss). Apoptotic cells were identified by flow cytometry using annexin-V-Fluos (Roche) following the manufacturer's protocol.
as §3, with “Cells were harvested for analysis 24h following application of drugs, or at the indicated timepoints for time-course analysis. For combined transfection/drug experiments, drugs were applied approximately 20 hours post-transfection. Cells from combined transfection/drug experiments were harvested for analysis after 24 hours of drug exposure (˜48 hours post-transfection).” left out

ARPE-19 cells = assay: Cell viability / apoptosis (annexin-V staining, phase contrast); conditions: 24 h drug exposure
Experimental: as §4
as §3, with “Cells were harvested for analysis 24h following application of drugs, or at the indicated timepoints for time-course analysis. For combined transfection/drug experiments, drugs were applied approximately 20 hours post-transfection. Cells from combined transfection/drug experiments were harvested for analysis after 24 hours of drug exposure (˜48 hours post-transfection).” left out

JNK1 siRNA: siRNA: sense 5′-CUCCACCACCAAAGAUCCC(dTdT)-3′, antisense 5′-GGGAUCUUUGGUGGUGGAG(dTdT)-3′ (RNA, 3' dTdT, backbone not given here)
exogenous expression of SIRT1 and its phosphorylation (exogenous SIRT1 protein; HCT116 p53+/+ cells): indistinguishable from the intact controls | SIRT1 protein levels, S27 or S47 phosphorylation (SIRT1; ARPE-19, HCT116 p53+/+ or HCT116 p53−/− cells): no effect | total SIRT1 protein levels (SIRT1; ARPE-19 cells): no effect

O=c1[nH]cc(F)c(=O)[nH]1 [5-FU, 5-fluorouracil]
lamin A/C and GAPDH mRNA levels (laminA/C and GAPDH mRNAs): relatively unaffected | total SIRT1 protein levels (SIRT1; ARPE-19 cells): increased 6 h after 5-FU treatment and subsequently declined by 24 h | SIRT1 S27 phosphorylation (SIRT1; HCT116 p53+/+ cells): lost | total SIRT1 protein levels (SIRT1; HCT116 p53+/+ cells): stable over 12 h, but declined by 24 h post-treatment | SIRT1 S27 phosphorylation (SIRT1; HCT116 p53−/− cells): retained | total SIRT1 protein levels (SIRT1; HCT116 p53−/− cells): remains constant up to at least 48 h | acetylation of p53 (p53; ARPE-19 cells): undetectable | p53 response (p53; ARPE-19 cells): attenuated | p53 K382 acetylation (p53; HCT116 p53+/+ cells): induction | p53 response (p53; HCT116 p53+/+ cells): sustained | depletion of SIRT1 mRNA (SIRT1 mRNA; 5-FU (375 μM) for 24 h, ARPE-19 and HCT116 cells (FIG. 2a)): 80% | SIRT1 mRNA estimated t1/2 (SIRT1 mRNA; ARPE-19 cells): ~4 h | SIRT1 mRNA estimated t1/2 (SIRT1 mRNA; HCT116 cells): < 2 h | apoptosis (HCT116 p53+/+ cells): apoptosis | cell viability (ARPE-19 cells): remained viable

JNK2 siRNA: siRNA: sense 5′-GAGCUGGUGAAAGGUUGUG(dTdT)-3′, antisense 5′-CACAACCUUU CACCAGCUC(dTdT)-3′ (antisense CACAACCUUUCACCAGCUC; RNA, 3' dTdT, backbone not given here)
half life of exogenous SIRT1 protein (exogenous SIRT1 protein; HCT116 cells, following addition of cycloheximide): approximately 2 hrs | S27 phosphorylation of exogenous SIRT1 protein (exogenous SIRT1 protein; HCT116 p53+/+ cells): non-phosphorylated at S27 | exogenous SIRT1 S47P (exogenous SIRT1 protein; HCT116 p53+/+ cells): clearly detectable | total exogenous SIRT1 protein levels (exogenous SIRT1 protein; HCT116 p53+/+ cells): reduced | total SIRT1 protein levels (SIRT1; ARPE-19 cells): reduced levels of SIRT1 protein | SIRT1 S27 phosphorylation (SIRT1; HCT116 p53+/+ cells): loss of SIRT1 S27P | SIRT1 S47P (SIRT1; HCT116 p53+/+ cells): barely detectable | total SIRT1 protein levels (SIRT1; HCT116 p53+/+ cells): reduced SIRT1 protein levels | SIRT1 protein levels or phosphorylation status (SIRT1; HCT116 p53−/− cells): little effect | SIRT1 mRNA levels (SIRT1 mRNA; ARPE-19 cells, 24-96 h post-transfection): remained constant | SIRT1 mRNA levels (SIRT1 mRNA; HCT116 p53+/+ cells): absence of any reduction
